row,Compound,melting point [°C]
1,C=CCn1c(=O)c2c(nc(/C=C/c3cc(OC)c(OC)c(OC)c3)n2C)n(CC=C)c1=O,189 to 191
2,CC1c2cc(OCC(=O)O)c(Cl)c(Cl)c2C(=O)C1(C)Cl (stereo not drawn),179 to 187
3,CC1(n2cc(C(=O)O)c(=O)c3cc(F)c(N4CCC(N)C4)c(F)c32)CC1 (stereo not drawn),> 300
4,CNc1nc(-c2cccc(NC(=O)c3ccccc3O)c2)c2cc(OC)c(OC)cc2n1,212 to 214
5,CCCC1(OC(C)=O)CCC2C3CCC4CC(=O)CC(C)C4(C)C3CCC21C (stereo not drawn),128 to 129
6,O=C(Nc1ccccc1)O[C@@H]1CN=C(c2cccc(Cl)c2)O[C@H]1c1ccccc1 (racemic),126
7,OCC1(CO)CC2C=CC1C2 (stereo not drawn),110
8,CNC(=S)NCCS(=O)Cc1cncn1C (stereo not drawn),139 to 140
9,O=c1[nH]c2ncc(-c3ccncc3)nc2n1CC1CCCCC1,267 to 269
10,S=C(Nc1cccnc1)N1N=CCC1c1ccccc1 (stereo not drawn),156 to 158
11,COc1cccc(Nc2nnc(Cc3ccncc3)c3ccccc23)c1,118 to 120
12,O=C(NCc1ccccc1)C(Cc1c[nH]c2ccccc12)NC(=O)C(F)(F)F (stereo not drawn),186 to 188
13,CC(Oc1ccc(-c2ccc(F)c(C#N)c2)cc1)C(O)CCc1cccnc1 (stereo not drawn),108 to 109
14,Cc1sc2c(c1CCN1CCC(c3noc4cc(F)ccc34)CC1)CCN(C)C2,100 to 103
15,CCn1cc(C(F)(F)F)c(=O)[nH]c1=O,259 to 260
16,CC1CCC(Nc2c(C#N)c3ccccc3n2C)=CC1=O (stereo not drawn),194 to 195
17,CC(=O)OC1CSC(Oc2ccc(-c3cc4ccccc4o3)nc2)C(OC(C)=O)C1OC(C)=O (stereo not drawn),179
18,CCSc1cc(C)nc(SCC)c1NC(=O)CCCCSc1nc2ccccc2o1,122 to 123
19,Nc1cc(Cl)nn1-c1c(Cl)cc(C(F)(F)F)cc1Cl,128 to 129

row,Compound,melting point [°C]
1,CC(=O)c1ccn2c(C)c(C)nc2c1N,195 to 197
2,N#CNC(=S)Nc1ccc(Cl)cc1,> 250
3,O=C(NCCNCc1cc2cc(OCc3ccccc3)ccc2o1)C12CC3CC(CC(C3)C1)C2,169 to 170
4,COc1ccc(-c2cc3cc(F)c(F)cc3[nH]2)cc1NCc1cccc([N+](=O)[O-])c1,212 to 214
5,CCCNC(=O)C1(CCCCNc2ccc(Br)nc2)c2ccccc2-c2ccccc21,67 to 69
6,COc1cc(OC)c2c(c1)OC(C)(C)CC2NNc1ncnc2c1ncn2C1OC(CO)C(O)C1O (stereo not drawn),111 to 113
7,CC(C)c1cc(C(C)(C)CCP(=O)(O)O)cc(C(C)C)c1O,179 to 182
8,CCCCCC(CC(=O)Nc1cc(C(N)=O)ccc1CCCC)c1ccc(C(O)C(C)C)cc1OC (stereo not drawn),162 to 163
9,CCOC(=O)c1cn(CC)c2nc(OC)c([N+](=O)[O-])cc2c1=O,224 to 227
10,O=S1(=O)c2cccc3c(Cl)ccc(c23)N1CCCN1CC=C(c2ccccc2)CC1,135
11,COc1ccc(N2CCN(CCC3CN(C)C(=O)O3)CC2)cc1 (stereo not drawn),103 to 104
12,COC(=O)C1=CON2CCC34C=CC(O)CC3Oc3c(OC)ccc(c34)C12 (stereo not drawn),151 to 154
13,CC(=O)Nc1ccn([C@@H]2[C@H](O)[C@H](O)CC[C@H]2OC(C)=O)c(=O)n1 (racemic),249
14,Cc1cnc2c(S(=O)(=O)N[C@@H](CCCc3cn(C(c4ccccc4)(c4ccccc4)c4ccccc4)cn3)C(=O)OC(C)(C)C)cccc2c1,56
15,CCOC(=O)Nc1cc(C(C)=O)c2c(c1)N(NC(C)c1ccccc1)c1ccccc1CC2 (stereo not drawn),144 to 152
16,COc1ccc(NC(=O)N(Cc2ccccc2)C2CCCCCC2)c(NC(=O)c2cc(C(C)(C)C)c(O)c(C(C)(C)C)c2)c1,125 to 130
17,CCC(OC(=O)c1ccccc1)c1nc2c(C(F)(F)F)cccc2c(O)c1C(=O)Nc1nccs1 (stereo not drawn),230
18,CCC1CCc2cc(CC(=O)O)ccc2O1 (stereo not drawn),88 to 90
19,CC(=O)NC[C@H]1CN(c2ccc(N3CCC(n4nnc(N5CCOCC5)n4)CC3)c(F)c2)C(=O)O1,210 to 214

# Continued, values first:
row,melting point [°C],Compound
1,60,COC(=O)Cc1cccc(CNC(=O)C2Cc3ccccc3N2S(=O)(=O)c2ccc(-c3cccc(C(F)(F)F)c3)cc2)c1 (stereo not drawn)
2,125 to 126,COc1ccccc1C(=O)c1cccnn1
3,211,O=C(O)c1c(CNS(=O)(=O)c2cccc(Cl)c2)nn(-c2ccc(Cl)cc2Cl)c1-c1ccc(Cl)cc1
4,154,COc1ccc(-c2sc3c(c2OC(C)=O)CCCc2ccccc2-3)cc1
5,145 to 147,Cc1cc(=O)n(-c2ccccc2)c2[nH]n(-c3ccccc3)c(=O)c12
6,120 to 122,OC(c1ccc(Cl)cc1)(c1ccccc1F)C1CO1 (stereo not drawn)
7,178 to 179,CCn1ncc2c3noc(-c4cccc(C)c4)c3cnc21
8,64 to 66,CCCN(CCC)S(=O)(=O)c1ccc(C(CC2CCCC2)C(=O)Nc2nc3ccc(OC)nc3s2)cc1 (stereo not drawn)
9,165 to 167,CC(C)(COc1ccc2nccn2n1)CS(N)(=O)=O
10,236 to 237,CCOC(=O)c1ccc(NC(=O)C2Cc3cc(SC)ccc3C(=O)CS2)cc1 (stereo not drawn)
11,110,O=C(OCc1ccccc1)N1CCOc2cc(Oc3cc(Cl)ncn3)ccc21
12,171 to 173,Cc1noc(NS(=O)(=O)c2nccs2)c1Cl
13,82 to 84,CCOC(=O)CSc1nc(Cl)cc(-c2ccccc2)n1
14,302,Cc1cc(NC(=O)c2cc(C#N)cc(C)n2)ccn1
15,180 to 181,CCN1C(=O)Cc2cc(OCc3ccccc3C(=O)O)ccc21
16,125 to 135,O=[N+]([O-])c1ccc(C=C/C=C/c2ccc(Cl)c(Cl)c2)cc1
17,140,COc1ccc2ccc(N3C(=O)c4ccccc4C3CC(=O)CCN(C)C)nc2n1 (stereo not drawn)
18,270 to 271,CCn1c(=O)c2[nH]c(/C=C/c3ccc(OCOC)cc3)nc2n(CC)c1=O
19,110,C=CCOc1ccc2c(C)cc(=O)oc2c1
20,143,Cc1ccc(S(=O)(=O)n2ccc3c(Cl)ncnc32)cc1
21,282 to 286,O=c1[nH]c2ccc(Cl)cc2c(-c2ccccc2F)c1CO
22,226 to 230,CNS(=O)(=O)c1ccc(-c2c(Cl)nc(C(F)(F)F)nc2-c2ccc(S(C)(=O)=O)cc2)cc1
23,126 to 128,CC(=O)c1ccc(-c2ccc(S)cc2)cc1
24,127 to 129,CS(=O)(=O)c1ccc(-n2nc(C(F)(F)F)cc2-c2ccc(F)cc2)cc1
25,91,COC(=O)c1cc(C)c(OCCNC(=O)C2Cc3ccccc3N2S(=O)(=O)c2ccc(-c3ccc(F)cc3)cc2)c(C)c1 (stereo not drawn)
26,220 to 222,CCCn1c(-c2c(Cl)cccc2Cl)nc(-c2ccncc2)c1-c1ccc(Cl)cc1
27,85,Cc1cc2cccc(OS(=O)(=O)C(F)(F)F)c2nc1-c1ccccc1
28,240 to 242,CC(=O)Nc1ccc(Cn2cnc3c(Cl)ncnc32)cc1
29,70 to 72,COC1(c2cc(F)cc(OCc3nc(-c4ccc(F)cc4)c(-c4ccc(S(N)(=O)=O)cc4)o3)c2)CCOCC1
30,199 to 200,O[C@@H]1[C@H](O)CS[C@H]1n1cnc2c(NCc3ccccc3Cl)nc(Cl)nc21
